Experimental findings from ChEMBL document CHEMBL1201862, “PubChem BioAssay data set” (2004) are described below.

Among the test systems are A549; ACHN; BT-549; HCT-116; HL-60; NCI-H23; NCI-H522; NCI/ADR-RES; OVCAR-8; RPMI-8226; RXF 393; SF-539; SK-MEL-28; SK-OV-3; SNB-75; SR; TK-10; U-251; UACC-257; NCI-H226.
Holding throughout (experiment): growth of human tumour cells (NCI), 48 h

Each structure is given as a SMILES string.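 Assay format: 96-well plates, 48-hour exposure. GI50: concentration for 50% inhibition of growth.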 Calls of active or inactive are those of the source. Cut-off read from the data, not from the text of the source: active = GI50 up to about 1.1 µM and inactive = higher. Bounds are passed on as bounds.

As for `S=C(Nc1ccccn1)Nc1ccccc1Cl`, the GI50 was 50.8 µM (inactive) in the test on A549; 32.2 µM (inactive) with ACHN; 52.8 µM (inactive) with BT-549; > 71.9 µM (inactive) in the test on HCT-116; > 80.7 µM (inactive) with HL-60; 49.9 µM (inactive) in the test on NCI-H23. Moreover, the GI50 is 14.7 µM (inactive) with NCI-H522; > 67.5 µM (inactive) in the test on NCI/ADR-RES; 56 µM (inactive) with OVCAR-8; > 100 µM (inactive) in the test on RPMI-8226; 33.3 µM (inactive) in the test on RXF 393; 55.3 µM (inactive) in the test on SF-539. For the same molecule, the GI50 is > 100 µM (inactive) in the test with SK-MEL-28; > 66.1 µM (inactive) in the test on SK-OV-3; > 38.5 µM (inactive) in the test with SNB-75; 73.6 µM (inactive) with SR; > 68.7 µM (inactive) with TK-10; 48.6 µM (inactive) in the test with U-251. The GI50 in the test with UACC-257 is > 72.9 µM (inactive).
For `O=C(NNC(=O)c1ccccc1O)c1ccco1`, the GI50 with A549 was > 100 µM (inactive); in the test on BT-549 it was > 100 µM (inactive); with HCT-116 it was 97.5 µM (inactive); in the test with HL-60 it was 28.9 µM (inactive); in the test on NCI-H226 it was > 100 µM (inactive); in the test with NCI-H522, 57.3 µM (inactive). The GI50 in the test on NCI/ADR-RES was 55.7 µM (inactive); in the test on OVCAR-8 it was 80.7 µM (inactive); in the test with RPMI-8226, 84.5 µM (inactive); in the test on RXF 393 it was > 100 µM (inactive); with SF-539, > 100 µM (inactive); with SK-MEL-28, > 100 µM (inactive). For the same molecule, the GI50 in the test on SK-OV-3 is > 100 µM (inactive); with SNB-75, 38.6 µM (inactive); in the test on SR, 66.7 µM (inactive); in the test with TK-10 it was > 100 µM (inactive); in the test on U-251, > 100 µM (inactive); in the test on UACC-257 it was > 100 µM (inactive).
For `CC(=O)CCC(=O)C(=[N+]=[N-])S(=O)(=O)c1ccccc1`, the GI50 in the test with A549, in the test on ACHN, in the test with BT-549, with HCT-116, in the test with HL-60 and in the test with NCI-H23 was > 100 µM (inactive) throughout. Also, the GI50 in the test with NCI-H522 is 45.8 µM (inactive); in the test on NCI/ADR-RES, > 100 µM (inactive); in the test on OVCAR-8 it was > 100 µM (inactive); in the test with RPMI-8226 it was > 100 µM (inactive); in the test with RXF 393, > 100 µM (inactive); in the test on SF-539 it was > 100 µM (inactive). The GI50 in the test with SK-MEL-28, in the test on SNB-75, in the test on SR, in the test on TK-10, with U-251 and with UACC-257 was > 100 µM (inactive) each time.
As to `CCOC(=O)c1cnc2[nH]ccn2c1=O`, the GI50 in the test on A549, in the test with ACHN, in the test on BT-549, with HCT-116, in the test with HL-60 and in the test on NCI-H226 was > 10 µM (inactive) in each case. The GI50 with NCI-H23, in the test on NCI/ADR-RES, in the test on OVCAR-8, in the test on RPMI-8226, in the test on RXF 393 and in the test with SF-539 was > 10 µM (inactive) throughout. The GI50 with SK-MEL-28, in the test with SK-OV-3, with SNB-75, with SR, in the test with TK-10 and in the test on U-251 was > 10 µM (inactive) each time. For the same molecule, in the test on UACC-257, the GI50 was > 10 µM (inactive).
Regarding `O=C1CC(c2cccc([N+](=O)[O-])c2)C2(C(=O)NC(=O)NC2=O)C(c2cccc([N+](=O)[O-])c2)C1` (stereo unspecified), the GI50 in the test on A549 is > 100 µM (inactive); in the test with ACHN it was > 100 µM (inactive); in the test on BT-549 it was > 100 µM (inactive); with HCT-116, 20.1 µM (inactive); in the test with HL-60 it was > 100 µM (inactive); with NCI-H226 it was 58.2 µM (inactive). Besides, the GI50 with NCI-H23 was > 100 µM (inactive); in the test on NCI-H522, 78.2 µM (inactive); in the test with NCI/ADR-RES, > 100 µM (inactive); in the test with OVCAR-8, > 100 µM (inactive); in the test with RPMI-8226, 31.5 µM (inactive); with RXF 393, 13.6 µM (inactive). The GI50 in the test with SF-539 was > 100 µM (inactive); in the test with SK-MEL-28, > 100 µM (inactive); in the test on SK-OV-3, > 100 µM (inactive); in the test on SNB-75, > 100 µM (inactive); in the test with SR it was 55.6 µM (inactive); with U-251, > 100 µM (inactive). Further, the GI50 with UACC-257 is > 100 µM (inactive).
As for `NCCCC[C@H](N)C(=O)Nc1ccc(-c2nc3ccccc3s2)cc1`, the GI50 in the test with A549 is 31.2 µM (inactive); with ACHN it was 20.3 µM (inactive); in the test on BT-549, 28.6 µM (inactive); with HCT-116 it was 19 µM (inactive); in the test with NCI-H226 it was 25.6 µM (inactive); with NCI-H23 it was 25.6 µM (inactive). Moreover, the GI50 in the test with NCI-H522 was 17 µM (inactive); in the test on NCI/ADR-RES, 21.6 µM (inactive); in the test on OVCAR-8, 19.8 µM (inactive); in the test with RXF 393, 33.2 µM (inactive); in the test with SK-MEL-28 it was 19.7 µM (inactive); in the test with SK-OV-3, 21.1 µM (inactive). Also, the GI50 with SNB-75 was 16.8 µM (inactive); in the test on SR, 18.4 µM (inactive); with TK-10, 57.7 µM (inactive); in the test on U-251, 14.3 µM (inactive); with UACC-257 it was 70 µM (inactive).
For the molecule `O=C(Cc1ccc2ccccc2c1)NCc1ccc(C(=O)NCCc2ccccc2)cc1`, the GI50 with A549, in the test with ACHN, with BT-549, in the test with HCT-116, with NCI-H226 and in the test with NCI-H23 was > 100 µM (inactive) throughout. Further, the GI50 in the test on NCI-H522, in the test on NCI/ADR-RES, in the test on OVCAR-8, in the test on RPMI-8226, in the test on RXF 393 and in the test with SK-MEL-28 was > 100 µM (inactive) in each case. Moreover, the GI50 in the test on SK-OV-3, with SNB-75, in the test with SR, in the test with TK-10, in the test with U-251 and with UACC-257 was > 100 µM (inactive) throughout.
For `Cn1nc2ccc([N+](=O)[O-])cc2[n+]1[O-]`, the GI50 with A549, in the test on ACHN, in the test on BT-549, in the test with HCT-116, in the test with NCI-H226 and in the test with NCI-H23 was > 100 µM (inactive) throughout. The GI50 in the test on NCI-H522, in the test with NCI/ADR-RES, in the test with OVCAR-8, in the test with RXF 393, in the test with SF-539 and in the test with SK-OV-3 was > 100 µM (inactive) each time. For the same molecule, the GI50 in the test with SNB-75, in the test on SR, in the test on TK-10, in the test with U-251 and with UACC-257 was > 100 µM (inactive) in each case.
With `CC(=O)Oc1ccc(/C=C/C(=O)OCCCOC(=O)/C=C/c2ccc(OC(C)=O)c(OC(C)=O)c2)cc1OC(C)=O`, the GI50 is > 100 µM (inactive) in the test with A549; > 100 µM (inactive) in the test on ACHN; > 100 µM (inactive) in the test with BT-549; 58.1 µM (inactive) in the test on HCT-116; < 0.01 µM (active) in the test with HL-60; > 100 µM (inactive) with NCI-H23. The GI50 with NCI-H522, in the test with NCI/ADR-RES, with OVCAR-8, with RPMI-8226, in the test with RXF 393 and in the test with SF-539 was > 100 µM (inactive) each time. For the same molecule, the GI50 in the test with SK-MEL-28, in the test on SK-OV-3, in the test on SNB-75, in the test on SR, in the test with TK-10 and in the test with U-251 was > 100 µM (inactive) in each case. The GI50 with UACC-257 is > 100 µM (inactive).
Take `O=C(O)COc1cc(-c2ccccc2F)nc2cc3c(cc12)OCO3`: the GI50 in the test with A549 was > 100 µM (inactive); with ACHN it was > 100 µM (inactive); with BT-549, 98.6 µM (inactive); with HCT-116 it was > 100 µM (inactive); in the test on NCI-H226, > 100 µM (inactive); in the test on NCI-H23, > 100 µM (inactive). The GI50 in the test with NCI/ADR-RES, in the test with OVCAR-8, with RPMI-8226, in the test on RXF 393, in the test with SF-539 and in the test with SK-MEL-28 was > 100 µM (inactive) in each case. For the same molecule, the GI50 in the test on SK-OV-3, with SNB-75, in the test on SR, in the test on TK-10, in the test with U-251 and in the test on UACC-257 was > 100 µM (inactive) throughout.
Consider `CCC1(O)C(=O)OCc2c1cc1n(c2=O)Cc2cc3ccc(C=O)cc3nc2-1` (stereo unspecified), for which the GI50 was 2.13 µM (inactive) with A549; 0.713 µM (active) in the test on ACHN; 2.28 µM (inactive) in the test with BT-549; 1.34 µM (inactive) in the test with HCT-116; 1.36 µM (inactive) in the test on HL-60; 1.58 µM (inactive) in the test on NCI-H226. Moreover, the GI50 was 2.07 µM (inactive) in the test with NCI-H23; 0.574 µM (active) in the test with NCI/ADR-RES; 1.96 µM (inactive) with OVCAR-8; 2.79 µM (inactive) with RPMI-8226; 2.2 µM (inactive) in the test on RXF 393; 0.551 µM (active) with SF-539. Further, the GI50 is 27.1 µM (inactive) with SK-MEL-28; 2.2 µM (inactive) in the test with SK-OV-3; 1.36 µM (inactive) in the test on SNB-75; < 0.013 µM (active) in the test on SR; 54.3 µM (inactive) in the test with TK-10; 0.637 µM (active) with U-251. For the same molecule, the GI50 with UACC-257 was 6.19 µM (inactive).
